Reference: US12697325B2 (TENNOR THERAPEUTICS (SUZHOU) LIMITED, priority 2021, dated 2026)
Where two headings read alike, the source gives them in different places.

Tests used:
[1] = test system: Acinetobacter baumannii strains; assay: Minimum inhibitory concentration (CLSI M07), Example 2, 20 strains; assay type: cell-based
Protocol: The minimum inhibitory concentration (MIC) was determined in accordance with the requirements of the Clinical and Laboratory Standards Institute (CLSI) M07 (for aerobic bacteria).
3.1 The compounds were diluted with DMSO up to 100 times of the highest concentration tested.
The steps of manual dilution are as follows (example): firstly, the compound or antibiotic was diluted to 100 times of the maximum final concentration tested, then 60 μL of compound mother liquor was added to the first column of the 96-well plate, and 30 μL of DMSO was added to each well in the second to the 12th column; 30 μL of the liquid was transferred from the first column to the second column. After being pipetted up and down to even, 30 μL was transferred to the third column, and was diluted in sequence at a 2-fold gradient for a total of 10 times; then 30 μL was removed from each well in the 11th column, then a compound solution diluted at 2-fold gradient was obtained and 1 μL was transferred to a 96-well test plate.
Aerobic bacteria: the strains were inoculated on MHA one day in advance and incubated overnight at 37° C. On the day of the assay, 5-6 single colonies were picked and suspended evenly in saline, and the bacterial concentration was adjusted to the turbidity of 0.5 McFarland standard (concentration is about 1×10^8 CFU/mL). The bacterial suspension was diluted at 200-fold with the corresponding liquid culture medium (Table 1), i.e., the bacterial concentration was ~5×10^5 CFU/ml, and then 100 μL of the liquid was transferred to a 96-well round bottom plate (the 96-well plate with compound prepared in 4.2, Echo method) to obtain the test plate. If the compound was manually diluted, then 99 μL of the solution was transferred into a 96-well round bottom plate. The 96-well round bottom plate obtained above was placed into an incubator at 37° C. and 85% humidity to incubate for 20 h.

[2] = Pharmacokinetics in plasma and bronchoalveolar lavage fluid of female CD-1 mice; assay type: in vivo; details: female, CD-1, mouse
Protocol: An appropriate amount of the test drug was accurately weighed and mixed with the appropriate volume of vehicle (5% DMSO+0.5% Tween 80 in normal saline) to obtain a clear solution for the test in Table 9. The formulation solution for injection was prepared to sterile filtration through a 0.22 μm filter prior to administration. The mice were dosed with the drug within 30 min after the formulated solution for injection was prepared. A 1.5 mL of the formulation solution for injection was transferred into a polypropylene microcentrifuge tube for dose verification by LC/UV or LC-MS/MS.
All blood samples were transferred to pre-frozen EDTA-K2 tubes and placed on wet ice until centrifugation. […]
Plasma: approximately 100 μL of blood sample was transferred into pre-cooled commercial EDTA-K2 tubes and placed on wet ice until centrifugation. After the blood samples were centrifuged at approximately 4° C. and 3, 200 g for 10 min, plasma was collected and transferred to pre-labeled 96-well plates or polypropylene tubes, flash frozen on dry ice, and stored at ≤−60° C. until the analysis by LC-MS/MS.
Serum: approximately 100 μL of blood sample was transferred into a tube without anticoagulant and placed on wet ice for approximately 30 min and centrifuged at 4° C. and 3,000 g for 10 min, and the serum was collected and transferred into pre-labeled PP tubes placed on wet ice. After the completion of all the collections, serum samples were stored at −60° C. until being sent to the animal experimental team to determine urea concentration.
Bronchoalveolar lavage fluid (BALF): pre-cooled tracheo-alveolar lavage fluid was injected into the trachea or predefined bronchi. After a full expansion of the lung tissue, the lavage fluid was slowly drawn out with a syringe 30 s later. The lung was lavaged three times. During the last lavage, the lung tissue was gently squeezed to restore the fluid. To prevent contamination of other lung tissues, the corresponding bronchi were ligated. Both lungs of the mice were perfused with 0.8 mL.
[…] Approximately 200 μL of the BALF samples were transferred into a polypropylene tube, rapidly frozen on dry ice, maintained at ≤−60° C., and sent to the animal experimental team to determine urea concentration. The remaining BALF samples (approximately 600 μL) were rapidly frozen on dry ice and maintained at ≤−60° C. until being submitted for drug concentration analysis by LC-MS/MS.

In the case of `NC(=O)[C@@H]1CC[C@@H]2CN1C(=O)N2OS(=O)(=O)O` [Avibactam, [(2S,5R)-2-carbamoyl-7-oxo-1,6-diazabicyclo [3.2.1]oct-6-yl] bisulfate], the “MIC of the strain BAA-1795 (component in the combination)” value ([1]; strain BAA-1795, sulbactam/avibactam 4:1, concentration of the named component) is reported as 2 µg/mL, the “MIC90 of the single component in the combination” value ([1]; sulbactam sodium:avibactam sodium = 4:1, concentration of the named component) is reported as 4 µg/mL and the “MIC50 of the single component in the combination” value ([1]; sulbactam sodium:avibactam sodium = 4:1, concentration of the named component, Examples 1 and 2) is reported as 2 µg/mL. It also gave a Kp at 0.5 h ([2]; BALF/plasma, intravenous, 25 mg/kg, 0.50 h, read-out: BALF/plasma ratio Mean) of 0.0474, a Kp at 3 h ([2]; BALF/plasma, intravenous, 150 mg/kg, 3.00 h, read-out: BALF/plasma ratio Mean) of 0.0319 and a Kp at 5 h ([2]; BALF/plasma, intravenous, 150 mg/kg, 5.00 h, read-out: BALF/plasma ratio Mean) of 0.153. For the same compound, the Kp at 8 h ([2]; BALF/plasma, intravenous, 150 mg/kg, 8.00 h, read-out: BALF/plasma ratio Mean) was 0.211, the concentration at 0.5 h ([2]; ELF, intravenous, 0.50 h, group 01 (25 mg/kg per Table 9), read-out: ELF concentration Mean ± SD) was 5400 ± 2390 ng/mL and the concentration at 3 h ([2]; ELF, intravenous, 3.00 h, 150 mg/kg, read-out: ELF concentration Mean ± SD) was 4730 ± 2410 ng/mL. For the same compound, the concentration at 5 h ([2]; ELF, intravenous, 5.00 h, 150 mg/kg, read-out: ELF concentration Mean ± SD) was 129 ± 75.2 ng/mL, the concentration at 8 h ([2]; ELF, intravenous, 8.00 h, 150 mg/kg, read-out: ELF concentration Mean ± SD) was 22.2 ng/mL and the concentration at 0.5 h ([2]; bronchoalveolar lavage fluid (BALF), intravenous, 0.50 h, group 01 (25 mg/kg per Table 9), read-out: BALF concentration Mean ± SD) was 849 ± 210 ng/mL. For the same compound, the concentration at 3 h ([2]; bronchoalveolar lavage fluid (BALF), intravenous, 3.00 h, 150 mg/kg, read-out: BALF concentration Mean ± SD) was 626 ± 459 ng/mL, the concentration at 5 h ([2]; bronchoalveolar lavage fluid (BALF), intravenous, 5.00 h, 150 mg/kg, read-out: BALF concentration Mean ± SD) was 19 ± 11.6 ng/mL and the concentration at 8 h ([2]; bronchoalveolar lavage fluid (BALF), intravenous, 8.00 h, 150 mg/kg, read-out: BALF concentration Mean ± SD) was 5.37 ng/mL. It also gave a concentration at 0.25 h ([2]; plasma, 0.25 h, group 01 (25 mg/kg per Table 9), intravenous dripping, read-out: Plasma concentration Mean ± SD) of 16500 ± 2260 ng/mL, a concentration at 0.5 h ([2]; plasma, 0.50 h, group 01 (25 mg/kg per Table 9), intravenous dripping, read-out: Plasma concentration Mean ± SD) of 17900 ± 2040 ng/mL and a concentration at 1 h ([2]; plasma, 1.00 h, 150 mg/kg intravenous dripping, read-out: Plasma concentration Mean ± SD) of 18800 ± 3070 ng/mL. For the same compound, the concentration at 3 h ([2]; plasma, 3.00 h, 150 mg/kg intravenous dripping, read-out: Plasma concentration Mean ± SD) was 18300 ± 4530 ng/mL, the concentration at 4 h ([2]; plasma, 4.00 h, 150 mg/kg intravenous dripping, read-out: Plasma concentration Mean ± SD) was 285 ± 226 ng/mL and the concentration at 5 h ([2]; plasma, 5.00 h, 150 mg/kg intravenous dripping, read-out: Plasma concentration Mean ± SD) was 123 ± 34.8 ng/mL. It also gave a concentration at 6 h ([2]; plasma, 6.00 h, 150 mg/kg intravenous dripping, read-out: Plasma concentration Mean ± SD) of 57.8 ± 3.1 ng/mL and a concentration at 8 h ([2]; plasma, 8.00 h, 150 mg/kg intravenous dripping, read-out: Plasma concentration Mean ± SD) of 28.5 ± 9.52 ng/mL.
